Counter-ions that a name gives are not always drawn.
Tests used:
dogs [1] = assay: acute and seven-dose toxicity in dogs (capsules); conditions: dog, in vivo
Procedure: Therefore, these dogs were subsequently administered seven consecutive doses of 1000 mg/kg/day.

rats [2] = assay: acute toxicity study in rats; conditions: rat, in vivo
rats [3] = assay: seven-day dose-range finding study in rats; type: in vivo; conditions: seven days
[4] = molecular target: T1, GST-cGB-PDE5 fusion protein (cGMP binding sites of human PDE5A) (Homo sapiens, UniProt O76074); assay: cGMP binding assay with GST-cGB-PDE5 fusion protein
T1 construct: made in house; host or cells: E. coli BL21 (DE3)
Excerpt: RT-PCR method is used to obtain the cGB domain of PDE5 with forward and reverse primers designed from bovine PDE5A cDNA sequence (McAllister-Lucas L. M. et al, J. Biol. Chem. 268, 22863-22873, 1993) and the selection among PDE 1-10 families. 5′-3′, Inc. kits for total RNA followed by oligo (dT) column purification of mRNA are used with HT-29 cells. […] It is then cloned into pGEX-5X-3 glutathione-S-transferase (GST) fusion vector (Pharmacia Biotech )with tac promoter, and EcoR1 and XhoI cut sites. The fusion vector is then transfected into E. Coli BL21 (DE3) bacteria (Invitrogen). The transfected BL21 bacteria is grown to log phase, and then IPTG is added as an inducer. The induction is carried at 20° C. for 24 hrs. The bacteria are harvested and lysed. The soluble cell lysate is incubated with GSH conjugated Sepharose 4B (GSH-Sepharose 4B). The GST-cGB-PDE5 fusion protein can bind to the GSH-Sepharose beads, and the other proteins are washed off from beads with excessive cold PBS.
Then, the mixture is transferred to Brandel MB-24 cell harvester with GF/B as the filter membrane followed by 2 washes with 10 mL of cold 5 mM potassium buffer(pH 6.8). The membranes are then cut out and transferred to scintillation vials followed by the addition of 1 mL of H2O and 6 mL of Ready Safe™ liquid scintillation cocktail to each vial. The vials are counted on a Beckman LS 6500 scintillation counter.
The quenching by filter membrane or other debris are also calibrated.

PDE4 = assay: PDE inhibition, similar protocols: PDE4; type: biochemical
dogs [5] = assay: 91-day oral study in dogs; type: in vivo
rats [6] = assay: long-term (91-day) safety assessment study in rats; type: in vivo
Excerpt: These changes were not associated with any gross clinical abnormality.

PDE5 = molecular target: T2, PDE5 (Homo sapiens, UniProt O76074); assay: competitive binding (with cGMP) to PDE5
T2 construct: partially purified cGMP-specific PDE isolated from HT-29 cells; endogenous in cells; host or cells: HT-29

PDE1 = assay: PDE inhibition, similar protocols: PDE1; type: biochemical
rats [7] = assay: 28-day study in rats; type: in vivo
Procedure: A 28-day study in rats was also carried out at 0, 50, 500 and 2000 mg/kg/day.

U937 cells = assay: apoptosis induction of U937 cells (active caspase 3 immunofluorescence); type: cell-based; set-up: apoptosis as reflected by active caspase 3 (FIG. 8): dose or concentration left out as unconfirmed; conditions: for Percentage of apoptotic cells / Number of apoptotic cells: 24 hrs; for Number of apoptotic cells: active caspase 3, 500 cells scored
Procedure: U937 cells (from ATCC Rockville, Md.) were grown in RPMI media supplemented with 5% FCS, glutamine, antibiotic/antimycotic and sodium pyruvate. Total RNA was isolated from two U937 cultures, one treated with 5 nM TPA for 48 hours and one grown in normal media as listed above, using the Rouche High Pure RNA Isolation Kit (cat# 1 828 665) as per manufacturers protocol. cDNA was then synthesized from the total RNA using GibcoBRL SuperscriptII (Cat # 18064-022) reverse transcriptase as per manufacturers protocol. The resulting cDNA was used as a template for RT-PCR reactions using primer sets specific for PDE2 (forward: […], reverse: […]) or PDE5 (forward: […], reverse: […]). mRNA for PDE2 and 5 were both present in the untreated U937 cells. Upon treatment with TPA, the relative amounts of PDE2 mRNA increased 5 fold. Therefore, U937 cells treated with TPA and driven to differentiate into an activated macrophage like state have elevated levels of PDE2 mRNA (see FIG. 1).
The presence of PDE2 and PDE5 protein within U937 cells was confirmed by indirect immunofluorescence (IIF). U937 cells were cultured as above. Two U937 cultures, one grown in the presence of 5 nM TPA for 48 hours and one grown in normal media were processed. All cultures were collected by centrifugation (Shandon Cytospin, 2 minutes @ 600 rpm) onto poly-L lysine-coated slides and immediately fixed in fresh 3% paraformaldehyde buffered in PBS for 10 minutes. Adherent cultures were grown on coverslips and fixed as above. Cells were permeablized in 0.2% triton-100 for 2 minutes. Slides were blocked with blocking buffer (5% goat serum, 5% glycerol, 1% gelatin from cold water fish skin and 0.04% NaN3 in PBS) for 1 hour at room temperature.
Adherent cells were dislodged by treatment with trypsin EDTA for 5 minutes at 37° C. Cells were then processed for IIF as described above, except that an antibody specific for active caspase 3 was used (as per manufacturer's protocol) instead of antibodies to PDE2 or 5 (Promega Cat. #G7481). The anti-active caspase 3 antibody was diluted 1:200 in blocking buffer and processed according to the manufacturer's protocol. The resulting slides were observed under a fluorescent microscope and a digital images were obtained.
The level of apoptosis in U937 cells was quantified by scoring 500 consecutive cells for the presence of active caspase 3.
The cells were harvested and processed for IIF as described above using an antibody that specifically recognizes active caspase 3. […] Therefore, the inhibition of only PDE4 or PDE5 alone (i.e. without the inhibition of PDE2) is not sufficient to induce apoptosis in U937 cells.

human patients = assay: single, escalating dose human clinical trial (safety); type: in vivo; conditions: oral, 50, 100, 200 and 400 mg BID
[8] = tested on: TNF-α secreted by TPA-induced U937 cells; assay: TNF-α immunoassay on U937 cell culture media; type: cell-based
Procedure: One function of macrophages is to modulate the activity of other inflammatory cells through various cytokine molecules.
TNF-α levels in the cell culture media were determined by using the TNF-α Immunoassay from R&D Systems (Cat. # DTA50) according to the manufacturer's protocol.

[9] = 28 days, 50, 500 and 2000 mg/kg/day
[10] = U937, TPA 5 nM, 16 hrs, then 1 uM

In the case of `CC1=C(CC(=O)NCc2ccccc2)c2cc(F)ccc2/C1=C\c1ccncc1` [Compound 38, (Z)-5-Fluoro-2-Methyl-(4-Pyridylidene)-3-(N-Benzyl) Indenylacetamide Hydrochloride], the signs of toxicity (dogs [1]; 1000 mg/kg) is reported as “no signs of toxicity”, the “signs of drug-related effects” value (dogs [1]; 1000 mg/kg/day) is reported as “At no time in either dosing phase were any obvious signs of drug-related effects observed” and the body weight gain (rats [2]; ip, 1000 mg/kg) is reported as “reduced body weight gain”. The necropsy findings (rats [2]; ip, 1000 mg/kg) was “mesenteric adhesions seen in some animals”, the body weight gains (rats [2]; po, 2000 mg/kg) was “slightly reduced” and the signs of toxicity (rats [3]; 50 mg/kg/day) was “no observable signs of toxicity”. For the same compound, the treatment-related effects (rats [3]; 500 mg/kg/day) was “increase in absolute and relative liver weights in female rats”, the treatment-related effects (rats [3]; 2000 mg/kg/day) was “labored breathing and/or abnormal respiratory sounds, decreased weights gains and food consumption in male rats, and increased liver weights in female rats” and the “hematology, blood chemistry, microscopic pathology” value (rats [3]; any dose level (50, 500, 2000 mg/kg/day)) was “No hematological or blood chemistry changes nor any microscopic pathology changes”. The “binding to the cGMP-binding site of PDE5” value [4] was “does not bind”, the IC50 (PDE4) was 6 µM and the tolerability (dogs [5]; 91 days) was “well tolerated”. The feces observation (dogs [5]; 91 days, 150 and 300 mg/kg/day) was “Orange discoloration of the feces”, the body weights (dogs [5]; 91 days, highest dose group) was “Slightly lowered body weights” and the liver weights (dogs [5]; 91 days, highest dose group) was “increased liver weights”. The “microscopic alterations (liver)” value (dogs [5]; 91 days, highest dose group) was “no microscopic alterations”, the “route of elimination (suggested by feces colour)” value (dogs [5]; 91 days, oral) was “most of Compound 38 was being eliminated via the feces” and the toxicological effects (dogs [5]; oral, 91 consecutive days, 50, 150 and 300 mg/kg/day) was “no toxicological effects”. The “clinical biochemistry and hematology” value (rats [6]; 91 days) was “no changes in clinical biochemistry and hematology”, the “microscopic finding, follicular cells” value (rats [6]; 91 days, 500 mg/kg/day) was “follicular cell hypertrophy” and the “microscopic finding, kidneys” value (rats [6]; 91 days, 200 and 500 mg/kg/day) was “increase in accumulation of hyalin droplets in the kidneys”. The “microscopic finding, liver” value (rats [6]; 91 days, 200 and 500 mg/kg/day) was “slight hepatocellular hypertrophy”, the organ weights (rats [6]; 91 days, males and females at 200 and 500 mg/kg/day) was “dose-related trend to increased liver and thyroid/parathyroid weights” and the toxicological effects (rats [6]; oral, 91 consecutive days, 50, 200 and 500 mg/kg/day) was “did not produce any major toxicological effects”. For the same compound, the “competitive (with cGMP) binding to PDE5” value (PDE5) was “does competitively (with cGMP) bind”, the IC50 (PDE1) was 3 µM and the “macroscopic tissue changes at necropsy” value (rats [7]; 28 days) was “No macroscopic tissue changes”. The liver weights (rats [7]; 28 days, 2000 mg/kg/day) was “statistically significant increase in liver weights”, the thyroid weights (rats [7]; 28 days, 2000 mg/kg/day) was “statistically significant increases in thyroid weights” and the “body weight changes, ophthalmoscopic examinations, hematological and blood chemistry values, urinalysis” value (rats [7]; [9]) was “unremarkable”. The clinical observations (rats [7]; [9]) was “no abnormal clinical observations”, the “slight liver and thyroid weight increases” value (rats [7]; 28 days, lower doses) was “not statistically significant” and the “histopathological evaluation of tissues” value (rats [7]; 28 days, small number of animals at 2000 mg/kg/day, one female at 500 mg/kg/day) was “traces of follicular cell hypertrophy, increased numbers of mitotic figures (suggestive of possible cell proliferation) in the thyroid gland and mild centrilobular hypertrophy in the liver”. The “Percentage of apoptotic cells” value (U937 cells; [10]) was 78%, the “Number of apoptotic cells” value (U937 cells; [10]) was 392/500 and the “Percentage of apoptotic cells” value (U937 cells; U937, no TPA treatment, 1 uM) was 75%. The “Number of apoptotic cells” value (U937 cells; U937, no TPA treatment, 1 uM) was 375/500, the “apoptosis as reflected by active caspase 3 (FIG. 8)” value (U937 cells; U937 cells treated with compound 38) was “undergoing apoptosis” and the induction of apoptosis (U937 cells; differentiated and non-differentiated U937 cell line) was “causes the induction of apoptosis”. The side effects (human patients) was “no significant side effects” and the “level of TNF-α secreted (FIG. 12)” value [8] was “significantly reduced”.
